Experimental data from US10143686B2, “Oxidosqualene cyclase as a protein target for anticancer therapeutics” (The Curators of the University of Missouri, priority 2010, dated 2018).
pIC50: −log10 of the molar value.

Tests used:
[1] = target: T1, OSC (Homo sapiens, UniProt P48449); conditions: value in parentheses not explained in the patent; cited from earlier work
T1 sequence (P48449 1-732): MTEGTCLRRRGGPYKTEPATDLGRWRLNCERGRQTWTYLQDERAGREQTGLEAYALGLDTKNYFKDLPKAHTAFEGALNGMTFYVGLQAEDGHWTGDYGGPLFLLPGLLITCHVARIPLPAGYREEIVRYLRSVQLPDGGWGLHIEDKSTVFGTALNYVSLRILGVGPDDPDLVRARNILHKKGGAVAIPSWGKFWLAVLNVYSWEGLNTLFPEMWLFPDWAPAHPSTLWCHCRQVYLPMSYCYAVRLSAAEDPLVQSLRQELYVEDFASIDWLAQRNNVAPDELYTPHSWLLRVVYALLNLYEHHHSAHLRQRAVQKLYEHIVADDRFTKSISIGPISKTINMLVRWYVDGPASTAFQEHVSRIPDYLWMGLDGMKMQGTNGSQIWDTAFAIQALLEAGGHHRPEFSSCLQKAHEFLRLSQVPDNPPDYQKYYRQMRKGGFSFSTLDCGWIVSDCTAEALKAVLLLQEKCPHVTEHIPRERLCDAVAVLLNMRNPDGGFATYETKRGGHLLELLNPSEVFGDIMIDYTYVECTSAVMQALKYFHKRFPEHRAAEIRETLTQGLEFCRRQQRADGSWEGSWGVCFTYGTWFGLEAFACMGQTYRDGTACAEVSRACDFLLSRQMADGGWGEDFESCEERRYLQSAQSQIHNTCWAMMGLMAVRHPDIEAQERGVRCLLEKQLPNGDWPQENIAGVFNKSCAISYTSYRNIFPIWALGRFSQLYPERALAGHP

[2] = tested on: BT-474 breast cancer cells; experiment: SRB cell viability assay, BT-474; assay type: cell-based, human; conditions: BT-474, 24 hours, dose-dependent, FIG. 2A
Procedure: (§1) The sulforhodamine B (SRB) assay was employed to evaluate the effect of OSC inhibitor Ro 48-8071 on viability of breast cancer and normal mammary gland cells with slight modification of the original procedure established at NCI. Accordingly, the cells were seeded in 96-well plates in 100 μl culture medium and incubated overnight at 37° C. with 5% CO2. […] The surviving or adherent cells were fixed in situ by withdrawing the growth medium and adding 100 μl of PBS and 100 μl of 50% cold trichloroacetic acid and then incubating at 4° C. for 1 h. The surviving cells were washed with ice-water, dried at room temperature (RT), and then stained with 50 μl 4% SRB for 8 min at RT. Unbound dye was removed by washing 5 times with cold 1% acetic acid, and the plates were dried at RT. Bound stain was solubilized with 150 μl 10 mM Tris buffer, and absorbance of samples were measured at 520 nm with a SpecTRA MAX 190 microplate reader (Sunnyvale, Calif.). In these experiments on BT-474, T47-D, and AG11132A cell lines, six wells were used for each concentration, and each experiment was performed at least twice.
(§2) The effect of OSC inhibition was evaluated in additional cancer cell lines as well. Cancer cell lines may be purchased from ATCC (Manassas, Va.). The SRB assay has been employed for determination of the inhibitory effects of RO 48-8071 on growth of different cancer cells. Cells were seeded into 96-well plates and incubated overnight at 37° C. with 5% CO2. The culture medium was removed after 24 hours, and cells were washed with DMEM/F12 medium and then treated with various concentrations of RO 48-8071 in 5% FBS culture medium for 24 and 48 hours. Surviving or adherent cells were fixed in situ by withdrawing the growth medium, adding 100 μl PBS and 100 μl 50% trichloroacetic acid and then incubating at 4° C. for one hour. Cells were washed with ice-cold water, dried at room temperature (RT), and then stained with 50 μl 4% SRB for eight minutes at RT. Unbound dye was removed by washing with cold 1% acetic acid for five times, and plates were dried at RT. Bound stain was solubilized with 150 μl 10 mM Tris buffer and absorbance of samples was read at 520 nm with a SpecTRA MAX 190 microplate reader (Molecular Devices, Sunnyvale, Calif.). Six wells were used for each concentration, and each experiment was performed two to three times.
Effect of RO 48-8071 on breast cancer cell line BT-474 viability. […] The culture mediums employed 10% FBS DMEM/F12 for culture and 5% FBS DMEM/F12 for treatment.

[3] = tested on: T47-D breast cancer cells; experiment: SRB cell viability assay, T47-D; assay type: cell-based; conditions: 24 hours, dose-dependent, FIG. 2B
Procedure: as §1, §2
Effect of RO 48-8071 on breast cancer cell line T47-D viability. […] The culture mediums employed 10% FBS DMEM/F12 for culture and 5% FBS DMEM/F12 for treatment.

SMILES | pIC50 [1] | effect on cell viability (SRB) [2] | effect on cell viability (SRB) [3]
CN(CCCCOc1ccc(C(=O)c2ccc(Br)cc2)cc1)C1CC1 | 7.72 |  | 
C=CCC(C)CCCCCCOc1ccc2c(-c3ccc(Br)cc3)nn(C)c2c1 (stereo not shown) | 7.71 |  | 
O=C(c1ccc(Cl)cc1)N1CCC(Cc2ccc(C3=NCCO3)cc2)CC1 | 7.44 |  | 
O=C1C2CCN(CC2)C1(CO)CO [PRIMA-1, 2,2-bis(hydroxymethyl)-3-quinuclidinone] |  | significantly inhibit the viability | significantly inhibit the viability
CCN(CC)CCO[C@H]1CC[C@@]2(C)C(=CC[C@@H]3[C@@H]2CC[C@]2(C)C(=O)CC[C@@H]32)C1 [U18666A, 3-beta-(2-(diethylamino)ethoxy)androst-5-en-17-one] |  | significantly inhibit the viability | significantly inhibit the viability
